The record followed here is ChEMBL document CHEMBL1833829, “Development of 2-substituted-N-(naphth-1-ylmethyl) and N-benzhydrylpyrimidin-4-amines as dual cholinesterase and Aβ-aggregation inhibitors: Synthesis and biological evaluation” (Bioorg Med Chem Lett, 2011).

Experiment [1] addresses T1, Cholinesterase (Equus caballus, UniProt P81908).
Description: (§1) Inhibition of equine BuChE by Ellman's method
A further experiment concerns the target Acetylcholinesterase (Homo sapiens, UniProt P22303).
Experiment [2] has as its target T1, Cholinesterase. This is another data set of the same source.
Description: as §1

A value given as a limit tells only on which side of the number the result lay.

T1 sequence (P81908 whole entry): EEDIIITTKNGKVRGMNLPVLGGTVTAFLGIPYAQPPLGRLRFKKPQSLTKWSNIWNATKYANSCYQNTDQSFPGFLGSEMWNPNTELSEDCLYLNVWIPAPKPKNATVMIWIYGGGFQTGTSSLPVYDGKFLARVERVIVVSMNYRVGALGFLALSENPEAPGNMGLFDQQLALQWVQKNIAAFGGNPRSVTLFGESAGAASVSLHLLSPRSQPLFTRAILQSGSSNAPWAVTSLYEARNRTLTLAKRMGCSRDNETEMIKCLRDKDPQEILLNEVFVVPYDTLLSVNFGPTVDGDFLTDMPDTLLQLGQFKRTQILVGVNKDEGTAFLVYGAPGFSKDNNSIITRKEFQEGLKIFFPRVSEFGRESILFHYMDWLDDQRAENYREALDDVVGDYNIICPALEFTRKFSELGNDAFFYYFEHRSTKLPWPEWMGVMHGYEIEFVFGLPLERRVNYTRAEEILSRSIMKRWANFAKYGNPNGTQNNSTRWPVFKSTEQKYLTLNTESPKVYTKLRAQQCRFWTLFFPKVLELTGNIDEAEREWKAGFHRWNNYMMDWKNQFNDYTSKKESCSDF
Chain of Acetylcholinesterase (P22303 whole entry): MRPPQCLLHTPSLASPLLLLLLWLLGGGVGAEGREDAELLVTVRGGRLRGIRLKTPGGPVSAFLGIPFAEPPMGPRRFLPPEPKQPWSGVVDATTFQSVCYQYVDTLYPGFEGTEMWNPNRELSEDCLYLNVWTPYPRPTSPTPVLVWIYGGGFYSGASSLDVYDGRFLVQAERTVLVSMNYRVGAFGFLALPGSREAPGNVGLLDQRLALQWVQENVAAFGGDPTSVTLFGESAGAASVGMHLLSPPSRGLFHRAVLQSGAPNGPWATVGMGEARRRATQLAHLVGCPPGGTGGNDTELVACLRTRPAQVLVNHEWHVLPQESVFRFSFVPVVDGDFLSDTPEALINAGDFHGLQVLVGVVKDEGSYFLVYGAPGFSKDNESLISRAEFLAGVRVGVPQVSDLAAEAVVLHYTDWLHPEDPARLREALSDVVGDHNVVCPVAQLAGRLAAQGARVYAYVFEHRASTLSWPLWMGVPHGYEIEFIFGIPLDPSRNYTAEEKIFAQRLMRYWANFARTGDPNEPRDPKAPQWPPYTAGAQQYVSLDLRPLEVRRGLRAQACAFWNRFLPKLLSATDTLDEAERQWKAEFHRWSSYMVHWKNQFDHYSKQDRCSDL
Description for Acetylcholinesterase: Inhibition of human AChE by Ellman's assay

Consider `CC1CCN(c2nccc(NCc3cccc4ccccc34)n2)CC1`, for which the IC50 at Cholinesterase [1] was found to be 2.2 µM.

Consider `CC(C)N1CCN(c2nccc(NCc3cccc4ccccc34)n2)CC1`, for which the IC50 against Acetylcholinesterase is 15.8 µM; at Cholinesterase [2], 7.6 µM.

Consider `CC(C)C1CCN(c2nccc(NCc3cccc4ccccc34)n2)CC1`, for which the IC50 against Acetylcholinesterase came out at 16.7 µM; at Cholinesterase [2], 9.1 µM.

With `CCCN1CCN(c2nccc(NCc3cccc4ccccc34)n2)CC1`, the IC50 against Acetylcholinesterase was determined as 19 µM; at Cholinesterase [2] it was 18.1 µM.

As for `c1ccc2c(CNc3ccnc(N4CCN(C5CCCCC5)CC4)n3)cccc2c1`, the values for the half-maximal inhibitory concentration (IC50) against Acetylcholinesterase and on Cholinesterase [2] were 8 µM and 3.9 µM, respectively.

With `CC(=O)N1CCN(c2nccc(NCc3cccc4ccccc34)n2)CC1`, the values for the IC50 against Acetylcholinesterase and against Cholinesterase [2] were 13.8 µM and 32.9 µM, respectively.

As for `CC(C)(C)OC(=O)N1CCN(c2nccc(NCc3cccc4ccccc34)n2)CC1`, the IC50 is 50.8 µM on Acetylcholinesterase and greater than 100 µM against Cholinesterase [2].

Turning to `c1ccc2c(CNc3ccnc(N4CCNCC4)n3)cccc2c1`, the figures for the IC50 at Acetylcholinesterase and against Cholinesterase [2] were 17.5 µM and 25.4 µM, respectively.

Consider `OCCN1CCN(c2nccc(NCc3cccc4ccccc34)n2)CC1`, for which the figures for the IC50 on Acetylcholinesterase and against Cholinesterase [2] were 9.8 µM and 17.9 µM, respectively.

Consider `COCCN1CCN(c2nccc(NCc3cccc4ccccc34)n2)CC1`, for which the IC50 stood at 11.7 µM on Acetylcholinesterase and 26.5 µM against Cholinesterase [2].

For the molecule `CN1CCN(c2nccc(NC(c3ccccc3)c3ccccc3)n2)CC1`, the IC50 turned out to be 13.7 µM on Acetylcholinesterase and 23.8 µM against Cholinesterase [2].

For the molecule `CC1CCN(c2nccc(NC(c3ccccc3)c3ccccc3)n2)CC1`, the IC50 was found to be 32.2 µM on Acetylcholinesterase and 33.8 µM at Cholinesterase [2].

As to `CC(C)N1CCN(c2nccc(NC(c3ccccc3)c3ccccc3)n2)CC1`, the concentration for half-maximal inhibition (IC50) was determined as 20.3 µM against Acetylcholinesterase and 9.7 µM at Cholinesterase [2].

Take `CC(C)C1CCN(c2nccc(NC(c3ccccc3)c3ccccc3)n2)CC1`: the half-maximal inhibitory concentration (IC50) was 42.5 µM at Acetylcholinesterase and 87 µM against Cholinesterase [2].

Take `CCCN1CCN(c2nccc(NC(c3ccccc3)c3ccccc3)n2)CC1`: the concentration for half-maximal inhibition (IC50) stood at 14.6 µM against Acetylcholinesterase and 17.5 µM on Cholinesterase [2].

With `c1ccc(C(Nc2ccnc(N3CCN(C4CCCCC4)CC3)n2)c2ccccc2)cc1`, the IC50 at Acetylcholinesterase came out at 10 µM; against Cholinesterase [2], 7.6 µM.

On to `CC(=O)N1CCN(c2nccc(NC(c3ccccc3)c3ccccc3)n2)CC1`, for which the IC50 on Acetylcholinesterase is 29 µM; against Cholinesterase [2], greater than 100 µM.

As for `CC(C)(C)OC(=O)N1CCN(c2nccc(NC(c3ccccc3)c3ccccc3)n2)CC1`, the IC50 against Acetylcholinesterase and against Cholinesterase [2] was greater than 100 µM in each case.

In the case of `c1ccc(C(Nc2ccnc(N3CCNCC3)n2)c2ccccc2)cc1`, the half-maximal inhibitory concentration (IC50) at Acetylcholinesterase was 31.3 µM; on Cholinesterase [2] it was greater than 100 µM.

On to `OCCN1CCN(c2nccc(NC(c3ccccc3)c3ccccc3)n2)CC1`, for which the figures for the half-maximal inhibitory concentration (IC50) at Acetylcholinesterase and against Cholinesterase [2] were 21.6 µM and 59.5 µM, respectively.

With `COCCN1CCN(c2nccc(NC(c3ccccc3)c3ccccc3)n2)CC1`, the IC50 at Acetylcholinesterase came out at 39.2 µM; against Cholinesterase [2], 28.4 µM.
